For series [1], the system named is HCT-116 human colon cancer cell line. Set-up: method as in PMID 21126804. The following applies: mean ± SD; cited from earlier work.
Series [2] addresses isolated HER2 (Homo sapiens, UniProt P04626). Kind of series: HER2 inhibition assay, radiometric protein kinase assay (33PanQinase Activity Assay). To be noted: for IC50: isolated HER2, radiometric assay, 10 concentrations in singlicate. The format is biochemical. On the procedure:
The IC50 profile of the target compounds was determined using isolated HER2. IC50 values were measured by testing 10 concentrations (1 × 10 ^−4 M to 3 × 10 ^−9 M) of each compound in singlicate. A radiometric protein kinase assay (33PanQinase® Activity Assay) was used for measuring the kinase activity of HER2. The assay was performed in 96-well FlashPlatesTM from PerkinElmer (Boston, MA) in a 50 µl reaction volume. […] The reaction cocktails were incubated at 30 °C for 60 min. The reaction was halted with 50 µl of 2% (v/v) H3PO4, plates were aspirated and washed two times with 200 µl 0.9% (w/v) NaCl. Incorporation of ^33Pi was determined with a microplate scintillation counter (Microbeta, Wallac, Waltham, MA).
Human epidermal growth factor receptor 2 (HER2) is overexpressed in about 20% of all breast cancers. […] This prompted us to evaluated compounds 7–9 for their in vitro HER2 inhibitory effect. The IC50 profile of the target compounds was determined against isolated HER2 using a radiometric assay (Table 1).

The subject of series [3] is A-375 human melanoma cancer cell line. Description: Proliferation assay (sulphorhodamine-B) in A-375. The format is cell-based. The following applies: 72 h of treatment, mean ± SD, read-out: IC50 A375. The procedure:
(§1) MCF-7, HCT-116, A-375 and SKBR cells were grown at 37 °C in an atmosphere containing 5% CO2, with Dulbecco’s modified Eagle Medium (DMEM) (Gibco, Grand Island, NY) supplemented with 10% heat-inactivated foetal bovine serum (FBS) (Gibco), 2% L-glutamine, 2.7% sodium bicarbonate, 1% Hepes buffer, 40 mg/L gentamicin and 500 mg/L ampicillin.
(§2) Compounds were dissolved in DMSO and stored at −20 °C. For each experiment, the stock solutions were further diluted in medium to obtain the desired concentrations. The final solvent concentration in cell culture was ≤ 0.1% v/v of DMSO, a concentration without any effect on cell replication. Parallel cultures of MCF-7, HCT-116, A375 and SKBR-3 cells in medium with DMSO were used as controls.
(§3) The effect of the compounds on cell viability was assessed using the sulphorhodamine-B colorimetric assay. Cells suspension (1 × 10^3 cells/well) were seeded onto 24-well plates and incubated for 24 h. The cells were then treated with different concentrations of drugs in their respective culture medium and maintained with the treatment for 3 days. Three days later, wells were aspirated and fresh medium and drug were added. Then cell cultures were maintained for 3 additional days. Thereafter, a Titertek Multiscan (Flow, Irvine, CA) at 492 nm was used. The linearity of the SRB assay was evaluated with a cell number for each cell stock before each cell growth experiment. The IC50 values were calculated from semi-logarithmic dose–response curves by linear interpolation. All the experiments were plated in triplicate wells and were carried out twice.
(§4) We then investigated the effects of the target compounds on cell proliferation on the human breast cancer cell lines MCF-7 and SKBR-3, the human colon carcinoma cell line HCT-116 and the human malignant melanoma cell line A-375. The antiproliferative activity of 7–9 was evaluated using sulphorhodamine-B colorimetric assay after 72 h of treatment (Table 3).
(§5) All experiments were conducted in duplicate and gave similar results. The data are mean ± SD of three independent determinations. MCF-7: human breast cancer cell line; SKBR3: human breast cancer cell line; HCT-116: human colon cancer cell line and A-375: human melanoma cancer cell line.

Series [4] concerns SKBR3 human breast cancer cell line. Set-up: method as in PMID 24946763. To be noted: mean ± SD; cited from earlier work.
Series [5] relates to MCF-7 human breast cancer cell line. To be noted: cited from earlier work.
The subject of series [6] is caspase 1. Kind of series: Western blot, caspase 1 expression in SKBR cells. The series is classed as cell-based, human. The following applies: 5 µM, 16 h of exposition. On the procedure:
(§6) We performed a western blot to study differences in protein expression after treatment with 5 µM of 7c.
(§7) SKBR cells seeded on 6-well plates were treated during 4 h and 16, lysed using RIPA Lysis Buffer System (Santa Cruz Biotechnology, Santa Cruz, CA) and quantified by Pierce™ BCA Protein Assay Kit (Thermo Fisher Scientific, Waltham, MA). Western blot was realised using 4× Laemmli sample buffer (Bio-Rad, Hercules, CA) and separated by SDS-polyacrylamide gel electrophoresis (SDS–PAGE) and then, transferred to PVDF membranes. Blocking was realised with milk in PBS 5%.
(§8) The following primary antibodies were used to detect protein expression,: caspase 3: ref-9662S (Cell Signalling, Beverly, MA), caspase 1(14F468): sc-56036 (Santa Cruz Biotechnology, Santa Cruz, CA), cytochrome-c (A-8): sc-13156 (Santa Cruz Biotechnology, Santa Cruz, CA), Bax(B-9): sc-7480 (Santa Cruz Biotechnology, Santa Cruz, CA) and β-actin: sc-47778 (Santa Cruz Biotechnology, Santa Cruz, CA). […] Protein–antibody complexes were made visible using enhanced chemiluminescence (ECL, Bonus, Amersham, Little Chalfont, UK) with the program IMAGE READER LAS-4000 in a LAS-4000 imaging system. Quantity One program were used to analyse the intensity of the signal. […]
On the technique in general: A western blot detects proteins with antibodies after separation by electrophoresis.

Series [7] deals with cytochrome c. Description: Western blot, cytochrome c expression in SKBR cells. The format is cell-based, human. The following applies: 5 µM. On the procedure:
as §6, §7, §8

In series [8] the test system is SKBR3 human breast cancer cell line. Description: Proliferation assay (sulphorhodamine-B) in SKBR3. The series is classed as cell-based. The following applies: SK-BR-3, 72 h of treatment, mean ± SD. The procedure: as §1, §2, §3, §4, §5
The subject of series [9] is HCT-116 human colon cancer cell line. Kind of series: Proliferation assay (sulphorhodamine-B) in HCT-116. The series is classed as cell-based. To be noted: 72 h of treatment, mean ± SD. On the procedure: as §1, §2, §3, §4, §5
Series [10] deals with HER2. Description: Western blot, HER2 expression in SKBR cells. The series is classed as cell-based, human. To be noted: 5 µM. On the procedure: as §6, §7, §8
In series [11] the test system is Bax. Kind of series: Western blot, Bax expression in SKBR cells. The format is cell-based, human. To be noted: 5 µM, 4 h and 16 h, control and treated cells. The procedure: as §6, §7, §8
Series [12] concerns MCF-7 human breast cancer cell line. Description: Proliferation assay (sulphorhodamine-B) in MCF-7. The format is cell-based. To be noted: MCF7, 72 h of treatment, mean ± SD. On the procedure: as §1, §2, §3, §4, §5
For series [13], the system named is pro-caspase 3. Description: Western blot, pro-caspase 3 expression in SKBR cells. The series is classed as cell-based, human. The following applies: 5 µM. On the procedure:
as §6, §7, §8

Where two headings read alike, the source gives them in different places. Bounds are passed on as bounds.

As usually defined, the IC50 is the concentration that inhibits the measured activity by half. A word on the melting point: it is the temperature of the solid-liquid transition.

Chain of isolated HER2 (P04626 23-1255): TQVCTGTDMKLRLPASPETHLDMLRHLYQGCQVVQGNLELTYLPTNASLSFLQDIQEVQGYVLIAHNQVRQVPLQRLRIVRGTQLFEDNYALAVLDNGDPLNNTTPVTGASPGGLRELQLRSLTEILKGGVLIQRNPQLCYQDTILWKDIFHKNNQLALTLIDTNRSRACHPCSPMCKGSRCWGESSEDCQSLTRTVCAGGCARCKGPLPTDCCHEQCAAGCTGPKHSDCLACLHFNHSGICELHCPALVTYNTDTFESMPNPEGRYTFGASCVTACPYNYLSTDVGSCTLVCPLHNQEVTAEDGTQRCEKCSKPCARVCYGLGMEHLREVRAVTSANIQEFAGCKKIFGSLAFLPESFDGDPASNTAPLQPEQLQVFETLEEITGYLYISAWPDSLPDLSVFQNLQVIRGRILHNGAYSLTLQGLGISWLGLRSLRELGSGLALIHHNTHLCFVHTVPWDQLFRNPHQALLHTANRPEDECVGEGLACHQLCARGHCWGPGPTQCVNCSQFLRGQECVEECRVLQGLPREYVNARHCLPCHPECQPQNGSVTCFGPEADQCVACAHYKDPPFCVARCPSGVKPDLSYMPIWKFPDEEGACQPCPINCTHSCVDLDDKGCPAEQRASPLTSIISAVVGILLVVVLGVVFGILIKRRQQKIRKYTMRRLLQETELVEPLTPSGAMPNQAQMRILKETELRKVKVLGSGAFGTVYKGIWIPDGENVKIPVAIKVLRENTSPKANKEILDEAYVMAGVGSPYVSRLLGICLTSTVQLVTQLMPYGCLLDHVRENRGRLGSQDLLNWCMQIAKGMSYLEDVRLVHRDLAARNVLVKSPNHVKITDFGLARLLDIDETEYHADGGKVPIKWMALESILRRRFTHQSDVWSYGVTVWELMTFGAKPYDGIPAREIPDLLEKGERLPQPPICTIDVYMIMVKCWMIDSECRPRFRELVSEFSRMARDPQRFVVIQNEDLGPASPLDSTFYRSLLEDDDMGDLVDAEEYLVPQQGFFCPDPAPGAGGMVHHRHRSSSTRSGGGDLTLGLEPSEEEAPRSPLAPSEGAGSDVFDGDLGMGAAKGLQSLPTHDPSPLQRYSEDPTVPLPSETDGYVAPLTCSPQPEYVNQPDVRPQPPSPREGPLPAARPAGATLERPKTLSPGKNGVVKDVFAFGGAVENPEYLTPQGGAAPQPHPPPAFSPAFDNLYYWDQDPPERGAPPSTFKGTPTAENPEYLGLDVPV

With `O=[N+]([O-])c1ccc(S(=O)(=O)N2CC(n3cnc4c(Cl)nc(Cl)nc43)OCc3ccccc32)cc1` (racemic) [Compound 3, (RS)-2,6-dichloro-9-[1-(p-nitrobenzenesulfonyl)-1,2,3,5-tetrahydro-4,1-benzoxazepine-3-yl]-9H-purine], the IC50 is 570 ± 20 nM in series [1]; 27900 nM in series [2]; 1050 ± 10 nM in [3]; 330 nM in series [4]; 350 ± 10 nM in series [5] (mean ± SD, read-out: IC50 MCF-7); 355 nM in series [5] (previously described compounds, introduction, no reference number printed at the values, read-out: IC50 against the MCF-7 cell line).

`Cc1ccc(S(=O)(=O)N2CC(n3cnc4c(Cl)nc(Cl)nc43)OCc3ccccc32)cc1` (stereo not drawn) [Compound 7c, 2,6-Dichloro-9-[1-(p-methylbenzenesulfonyl)-1,2,3,5-tetrahydro-4,1-benzoxazepine-3-yl]-9H-purine] showed a melting point of 193 to 195 °C. For the same compound, the “caspase 1 expression, normalised value relative to control (value 1)” value in series [6] is reported as 3.1. Further, the “cytochrome c expression, normalised value relative to control (value 1)” value in [7] (4 h of treatment) is on record as 0.93. Further, in [7] (16 h of treatment), the “cytochrome c expression, normalised value relative to control (value 1)” value came out at 0.70. This compound registered an IC50 in series [8] of 420 ± 10 nM. Besides, the half-inhibitory concentration (IC50) in [9] worked out at 860 ± 30 nM. In addition, the “HER2 expression, normalised with β-actin and relative to control (value 1)” value in [10] (4 h of treatment) stood at 0.48. Moreover, the “HER2 expression, normalised with β-actin and relative to control (value 1)” value in [10] (16 h of treatment) was 0.07. Moreover, in series [2] (binding free energy difference relative to bozepinib (3), extracted from IC50 values), the “ΔΔG Experiment (3 -> L)” value was greater than 0.76 kcal/mol. For the same compound, the IC50 in [2] was greater than 100000 nM. For the same compound, in series [3], the IC50 was 780 ± 50 nM. Besides, the “Bax expression (western blot)” value in [11] is listed as “none expression of Bax”. In series [12], this compound displayed an IC50 of 860 ± 60 nM. Besides, the “pro-caspase 3 expression, normalised value relative to control (value 1)” value in series [13] (4 h after treatment) was found to be 1.18. For the same compound, the “pro-caspase 3 expression, normalised value relative to control (value 1)” value in series [13] (16 h after treatment) is on record as 0.43.
